Source: patent publication US4820694A, “Modifications of 3-O-demethylmycinose in macrocin and lactenocin” (priority 1986, dated 1989)
Values after ≈ are worked out from the molar mass of the structure shown. Read-outs that look alike come from different tables or passages of the source.

What was measured:
Escherichia coli EC14 = assay: standard agar-dilution MIC assay; format: cell-based
Experimental: (§1) The MIC's in Table III were determined by standard agar-dilution assays. The MIC's in Table IV were obtained using conventional brothdilution microtiter tests.

[1] = tested on: Haemophilus influenzae 76; assay: standard agar-dilution MIC assay; format: cell-based; details: Haemophilus influenzae, 76
Experimental: as §1

[2] = tested on: Haemophilus influenzae C.L.; assay: standard agar-dilution MIC assay; format: cell-based; details: Haemophilus influenzae
Experimental: as §1

[3] = tested on: Klebsiella pneumoniae X68; assay: standard agar-dilution MIC assay; format: cell-based; details: Klebsiella pneumoniae, X68
Experimental: as §1

[4] = tested on: Pseudomonas aeruginosa X239; assay: standard agar-dilution MIC assay; format: cell-based; details: Pseudomonas aeruginosa, X239
Experimental: as §1

[5] = tested on: Staphylococcus aureus V41; assay: standard agar-dilution MIC assay; format: cell-based; details: Staphylococcus aureus, V41
Experimental: as §1

[6] = tested on: Staphylococcus aureus X1.1; assay: standard agar-dilution MIC assay; format: cell-based; details: Staphylococcus aureus, X1.1
Experimental: as §1

[7] = tested on: Staphylococcus aureus X400; assay: standard agar-dilution MIC assay; format: cell-based; details: Staphylococcus aureus, X400
Experimental: as §1

[8] = tested on: Staphylococcus epidermidis 222; assay: standard agar-dilution MIC assay; format: cell-based; details: Staphylococcus epidermidis, 222
Experimental: as §1

[9] = tested on: Staphylococcus epidermidis EPI1; assay: standard agar-dilution MIC assay; format: cell-based; details: Staphylococcus epidermidis, EPI1
Experimental: as §1

[10] = tested on: Streptococcus Group D 9960; assay: standard agar-dilution MIC assay; format: cell-based; details: GROUPD9960, read-out: MIC
Experimental: as §1

[11] = tested on: Streptococcus Group D X66; assay: standard agar-dilution MIC assay; format: cell-based; details: read-out: MIC
Experimental: as §1

[12] = tested on: Streptococcus pyogenes C203; assay: standard agar-dilution MIC assay; format: cell-based; details: Streptococcus pyogenes, C203
Experimental: as §1

[13] = tested on: Staphylococcus aureus S13E; assay: microbe, parasite or virus in culture; format: cell-based; details: Staphylococcus aureus, S13E
Experimental: as §1

[14] = tested on: Streptococcus pneumoniae Park I; assay: microbe, parasite or virus in culture; format: cell-based; details: Streptococcus pneumoniae
Experimental: as §1

[15] = tested on: Bordetella bronchiseptica; assay: broth-dilution microtiter MIC test; format: cell-based; details: Bordetella bronchiseptica
Experimental: as §1

[16] = tested on: Mycoplasma gallisepticum 15E; assay: broth-dilution microtiter MIC test; format: cell-based; details: Mycoplasmoides gallisepticum, 15E
Experimental: as §1

[17] = tested on: Mycoplasma gallisepticum 29C; assay: broth-dilution microtiter MIC test; format: cell-based; details: Mycoplasmoides gallisepticum, 29C
Experimental: as §1

[18] = tested on: Mycoplasma gallisepticum 36H; assay: broth-dilution microtiter MIC test; format: cell-based; details: Mycoplasmoides gallisepticum, 36H
Experimental: as §1

Mycoplasma hyorhinis 29E = assay: broth-dilution microtiter MIC test; format: cell-based; details: Mycoplasma, 29E
Experimental: as §1

Mycoplasma synoviae 40A = assay: broth-dilution microtiter MIC test; format: cell-based; details: Mycoplasmopsis synoviae, 40A
Experimental: as §1

[19] = tested on: Pasteurella hemolytica 22C; assay: broth-dilution microtiter MIC test; format: cell-based; details: Pasteurella, 22C
Experimental: as §1

[20] = tested on: Pasteurella hemolytica 23C; assay: broth-dilution microtiter MIC test; format: cell-based; details: Pasteurella, 23C
Experimental: as §1

[21] = tested on: Pasteurella hemolytica 41D; assay: broth-dilution microtiter MIC test; format: cell-based; details: Pasteurella, 41D
Experimental: as §1

[22] = tested on: Pasteurella multocida 17E; assay: broth-dilution microtiter MIC test; format: cell-based; details: Pasteurella multocida, 17E
Experimental: as §1

[23] = tested on: Pasteurella multocida 22A; assay: broth-dilution microtiter MIC test; format: cell-based; details: Pasteurella multocida, 22A
Experimental: as §1

[24] = tested on: Pasteurella multocida 40G; assay: broth-dilution microtiter MIC test; format: cell-based; details: Pasteurella multocida, 40G
Experimental: as §1

[25] = tested on: Pasteurella multocida 60A; assay: broth-dilution microtiter MIC test; format: cell-based; details: Pasteurella multocida, 60A
Experimental: as §1

[26] = tested on: Pasteurella multocida 68C; assay: broth-dilution microtiter MIC test; format: cell-based; details: Pasteurella multocida, 68C
Experimental: as §1

[27] = tested on: Staphylococcus aureus 19C; assay: broth-dilution microtiter MIC test; format: cell-based; details: Staphylococcus aureus, 19C
Experimental: as §1

Streptococcus sp. 19F = assay: broth-dilution microtiter MIC test; format: cell-based; details: Streptococcus, SP.19F
Experimental: as §1

[28] = tested on: Streptococcus pyogenes C203; assay: protection of mice experimentally infected with S. pyogenes C203; format: in vivo
Experimental: The formula 1 compounds have shown in vivo antimicrobial activity against experimentally-induced infections in laboratory animals. When two doses of test compound were administered to mice experimentally infected with S. pyrogenes C203, the activity observed was measured as an ED50 value [effective dose in mg/kg to protect 50% of the test animals: see Warren Wick, et al., J. Bacteriol. 81, 233-235 (1961)].
^a mg/kg × 2; doses given 1 and 4 hours postinfection

SMILES	MIC [1]	MIC [2]	MIC [5]	MIC [6]	MIC [7]	MIC [8]	MIC [9]	MIC [10]	MIC [11]	MIC [12]	MIC [13]	MIC [14]	MIC [16]	MIC [17]	MIC [18]	MIC (Mycoplasma hyorhinis 29E)	MIC (Mycoplasma synoviae 40A)	MIC [19]	MIC [20]	MIC [21]	further results
CCC1OC(=O)CC(O)C(C)C(OC2OC(C)C(O)C(N(C)C)C2O)C(CC=O)CC(C)C(=O)C=CC(C)=CC1COC1OC(C)C(OC(=O)COc2ccccc2)C(OC(=O)COc2ccccc2)C1OC (stereo not drawn) [Compound 36, 3",4"-Di-O-phenoxyacetyl-lactenocin]	32 µg/mL (≈ 31.2 µM)	32 µg/mL (≈ 31.2 µM)	2 µg/mL (≈ 1.95 µM)	2 µg/mL (≈ 1.95 µM)	2 µg/mL (≈ 1.95 µM)	0.5 µg/mL (≈ 0.487 µM)	2 µg/mL (≈ 1.95 µM)	2 µg/mL (≈ 1.95 µM)	2 µg/mL (≈ 1.95 µM)	0.5 µg/mL (≈ 0.487 µM)	2 µg/mL (≈ 1.95 µM)	1 µg/mL (≈ 0.974 µM)	12.5 µg/mL (≈ 12.2 µM)	0.39 µg/mL (≈ 0.38 µM)	12.5 µg/mL (≈ 12.2 µM)	6.25 µg/mL (≈ 6.09 µM)	1.56 µg/mL (≈ 1.52 µM)	50 µg/mL (≈ 48.7 µM)	25 µg/mL (≈ 24.4 µM)	25 µg/mL (≈ 24.4 µM)	MIC (Escherichia coli EC14; agar-dilution, read-out: MIC): > 128 µg/mL; MIC ([3]; agar-dilution, read-out: MIC): > 128 µg/mL; MIC ([4]; agar-dilution, read-out: MIC): > 128 µg/mL; MIC ([15]; broth-dilution microtiter, read-out: MIC): > 50 µg/mL; MIC [22]: 50 µg/mL (≈ 48.7 µM); MIC [23]: 50 µg/mL (≈ 48.7 µM); MIC [24]: 50 µg/mL (≈ 48.7 µM); MIC [25]: 50 µg/mL (≈ 48.7 µM); MIC [26]: 25 µg/mL (≈ 24.4 µM); MIC [27]: 1.56 µg/mL (≈ 1.52 µM); MIC (Streptococcus sp. 19F): 0.78 µg/mL (≈ 0.76 µM); ED50 ([28]; C203, Oral, mice, mg/kg × 2, doses given 1 and 4 hours postinfection, read-out: ED50): > 100 mg/kg; ED50 ([28]; C203, sc, Subcutaneous, mice, mg/kg × 2, doses given 1 and 4 hours postinfection, read-out: ED50): 4.3 mg/kg
CCC1OC(=O)CC(O)C(C)C(OC2OC(C)C(O)C(N(C)C)C2O)C(CC=O)CC(C)C(=O)C=CC(C)=CC1COC1OC(C)C(OC(=O)Cc2ccccc2)C(O)C1OC (stereo not drawn) [Compound 30, 4"-O-Phenylacetyl-lactenocin]	8 µg/mL (≈ 9.13 µM)	8 µg/mL (≈ 9.13 µM)	0.5 µg/mL (≈ 0.571 µM)	0.5 µg/mL (≈ 0.571 µM)	1 µg/mL (≈ 1.14 µM)	0.25 µg/mL (≈ 0.285 µM)	0.5 µg/mL (≈ 0.571 µM)	1 µg/mL (≈ 1.14 µM)	0.5 µg/mL (≈ 0.571 µM)	0.25 µg/mL (≈ 0.285 µM)	0.5 µg/mL (≈ 0.571 µM)	0.5 µg/mL (≈ 0.571 µM)	12.5 µg/mL (≈ 14.3 µM)	0.39 µg/mL (≈ 0.445 µM)	25 µg/mL (≈ 28.5 µM)	1.56 µg/mL (≈ 1.78 µM)	1.56 µg/mL (≈ 1.78 µM)	50 µg/mL (≈ 57.1 µM)	25 µg/mL (≈ 28.5 µM)	50 µg/mL (≈ 57.1 µM)	MIC (Escherichia coli EC14): > 128 µg/mL; MIC [3]: > 128 µg/mL; MIC [4]: > 128 µg/mL; MIC [15]: > 50 µg/mL; MIC [22]: 25 µg/mL (≈ 28.5 µM); MIC [23]: 25 µg/mL (≈ 28.5 µM); MIC [24]: 25 µg/mL (≈ 28.5 µM); MIC [25]: 25 µg/mL (≈ 28.5 µM); MIC [26]: 12.5 µg/mL (≈ 14.3 µM); MIC [27]: 6.25 µg/mL (≈ 7.13 µM); MIC (Streptococcus sp. 19F): 1.56 µg/mL (≈ 1.78 µM)
CCC1OC(=O)CC(O)C(C)C(OC2OC(C)C(O)C(N(C)C)C2O)C(CC=O)CC(C)C(=O)C=CC(C)=CC1COC1OC(C)C(O)C(OC(=O)Cc2ccccc2)C1OC (stereo not drawn) [Compound 32, 3"-O-Phenylacetyl-lactenocin]	8 µg/mL (≈ 9.13 µM)	8 µg/mL (≈ 9.13 µM)	1 µg/mL (≈ 1.14 µM)	0.5 µg/mL (≈ 0.571 µM)	2 µg/mL (≈ 2.28 µM)	0.25 µg/mL (≈ 0.285 µM)	0.5 µg/mL (≈ 0.571 µM)	1 µg/mL (≈ 1.14 µM)	1 µg/mL (≈ 1.14 µM)	0.25 µg/mL (≈ 0.285 µM)	1 µg/mL (≈ 1.14 µM)	0.5 µg/mL (≈ 0.571 µM)	12.5 µg/mL (≈ 14.3 µM)	0.195 µg/mL (≈ 0.223 µM)	25 µg/mL (≈ 28.5 µM)	1.56 µg/mL (≈ 1.78 µM)	1.56 µg/mL (≈ 1.78 µM)	25 µg/mL (≈ 28.5 µM)	25 µg/mL (≈ 28.5 µM)	25 µg/mL (≈ 28.5 µM)	MIC (Escherichia coli EC14): > 128 µg/mL; MIC [3]: > 128 µg/mL; MIC [4]: > 128 µg/mL; MIC [15]: > 50 µg/mL; MIC [22]: 25 µg/mL (≈ 28.5 µM); MIC [23]: 25 µg/mL (≈ 28.5 µM); MIC [24]: 25 µg/mL (≈ 28.5 µM); MIC [25]: 25 µg/mL (≈ 28.5 µM); MIC [26]: 12.5 µg/mL (≈ 14.3 µM); MIC [27]: 1.56 µg/mL (≈ 1.78 µM); MIC (Streptococcus sp. 19F): 1.56 µg/mL (≈ 1.78 µM); ED50 ([28]; C203, sc): 4.4 mg/kg
